Results from patent US9095561B2, “Methods for affecting homology-directed DNA double stranded break repair” (University of South Carolina, priority 2010, dated 2015).
Where a SMILES comes first, the peptide text is derived from it. The star is where a group is joined. Cbz = O=C(OCc1ccccc1)*

Key:
HA-RAD51D = HA-RAD51D protein levels after CHX with or without proteasome inhibitor MG132; assay type: cell-based, mouse; design: HA-RAD51D protein levels elevated: dose or concentration left out as unconfirmed
Description: FIG. 18 illustrates analysis of MEFs that were treated with CHX ([…]) or CHX in combination with MG132 ([…]). Cell lysates were prepared at the 4 hour time point, and HA-RAD51D band intensity was calculated as described herein.
To determine whether decreased HA-RAD51D half-life can be attributed to proteasome degradation, HA-RAD51D protein levels were assessed following treatment with the proteasome inhibitor MG132. As anticipated, HA-RAD51D protein levels were elevated up to 42% in MG132 treated samples (FIG. 18, lanes 1-4) indicating RAD51D protein levels are in part regulated by the proteasome.

RAD51 foci = RAD51 foci formation by immunofluorescence in MEFs; assay type: cell-based, mouse; settings: MMC 200 ng/mL, 16 h exposure, RNF138 proficient MEFs; untreated control approximately 21 percent; p<0.01
Description: The presence of RAD51 foci was examined in MEFs subjected to either 200 ng/mL Mitomycin C (MMC) treatment or with no treatment. In addition, both deficient RNF138 cells and proficient RNF138 cells were examined.
For analysis of RAD51 foci formation, 10,000 cells were seeded onto glass coverslips for transfection with Rnf138 siRNA. Twenty-four hr following siRNA transfection, cells were challenged with MMC (200 ng/mL) for 16 hr. Immunofluoresence detection of RAD51 foci was carried out as is generally known I the art (see, e.g., Smiraldo et al., 2005). Cells containing five or more distinct foci were scored positive. For each condition, a minimum of 250 cells from at least three independent experiments was analyzed (n≧750).
The presence of RAD51 foci monitored by immunofluorescence is illustrated in FIGS. 12A-D. RAD51 foci indicates DNA damaged sites undergoing HR repair. MMC treatment (200 ng/mL) increased the percentage of cells containing 5 or more distinct RAD51 foci from approximately 21 percent for untreated control cells (FIG. 12B) to 51 percent (FIG. 12D) following a 16 h exposure (p<0.01). […] In addition, RAD51 foci formation was less in untreated RNF138 deficient (FIG. 12A) versus RNF138 proficient (FIG. 12B) MEFs. Although, a notable increase in RAD51 foci is still detected upon MMC treatment (FIG. 13).

Row | SMILES | HA-RAD51D protein stability following knockdown of RNF138 expression (HA-RAD51D; CHX plus MG132, 4 hour time point, RNF138 knockdown MEFs) | HA-RAD51D protein levels elevated (HA-RAD51D; CHX, 4 hour time point, MEFs) | percentage of cells containing 5 or more distinct RAD51 foci (RAD51 foci)
1 | CC(C)C[C@@H](C=O)NC(=O)[C@H](CC(C)C)NC(=O)[C@H](CC(C)C)NC(=O)OCc1ccccc1 [MG132] (Cbz-Leu-Leu-Leu-aldehyde) | failed to increase | up to 42% | –
2 | CO[C@@]12[C@H](COC(N)=O)C3=C(C(=O)C(C)=C(N)C3=O)N1C[C@@H]1N[C@@H]12 [MMC, Mitomycin C] | – | – | 51%
